Laboratory results from ChEMBL document CHEMBL4396913, “Synthesis and biological evaluation of hybrid quinolone-based quaternary ammonium antibacterial agents” (Eur J Med Chem, 2019).
pIC50: −log10 of the molar value. Activity calls are given as the source filed them. The calls are words filed in the database; no cut-off is given here.

Columns and labels:
[1] = test system: Pseudomonas aeruginosa; assay: Biofilm degradation activity against Pseudomonas aeruginosa ATCC 9027 assessed as biofilm formation at 2 times antibacterial MIC incubated for 24 hrs compound added post-biofilm formation by total biomass crystal violet staining-based method; assay type: functional
[2] = test system: Proteus vulgaris; assay: Antibacterial activity against Proteus vulgaris NCTC 4635 cultured in MH medium assessed as reduction in bacterial growth incubated for 48 hrs by microbroth dilution method; assay type: functional; conditions: NCTC 4635, 48 h
[3] = test system: Staphylococcus aureus; assay: Antibacterial activity against methicillin resistant Staphylococcus aureus N315 cultured in MH medium assessed as reduction in bacterial growth incubated for 48 hrs by microbroth dilution method; assay type: functional; conditions: N315, 48 h
[4] = test system: Escherichia coli; assay: Antibacterial activity against Escherichia coli ATCC 8739 assessed as reduction in cell number with morphological disorders at 128 ug/ml incubated for 30 mins by laser confocal microscopy; assay type: functional, organism-based
[5] = test system: HEK293; assay: Cytotoxicity against human HEK293 cells assessed as cell viability upto 20 uM incubated for 72 hrs by MTT assay; assay type: cell-based; conditions: hek293, 72 h
[6] = test system: Escherichia coli; assay: Induction of inner membrane permeabilization in Escherichia coli ATCC 8739 assessed as increase in release of cytoplasmic beta galactosidase using ONPG as substrate at above bactericidal concentration incubated for 90 mins compound added with bacterial cells after lag time of about 10 mins by spectrophotometry; assay type: organism-based
[7] = test system: Staphylococcus aureus; assay: Biofilm degradation activity against Staphylococcus aureus ATCC 6538 assessed as biofilm formation at 4 times antibacterial MIC incubated for 24 hrs compound added post-biofilm formation by total biomass crystal violet staining-based method; assay type: functional
[8] = Drug uptake in Escherichia coli ATCC 8739 assessed as cellular accumulation treated with 100 uM CCCP for 10 mins prior to compound challenge for 0.5 hrs by laser confocal microscopy; assay type: ADME
[9] = Drug uptake in Escherichia coli ATCC 8739 assessed as membrane accumulation and affinity to cell structure at 128 ug/ml incubated for 30 mins by laser confocal microscopy; assay type: ADME; conditions: 0.5 h
[10] = test system: Staphylococcus aureus; assay: Bactericidal activity against Staphylococcus aureus ATCC 6538 cultured in MH medium assessed as reduction in bacterial survival incubated for 48 hrs by microbroth dilution method; assay type: functional; conditions: ATCC 6538, 48 h
[11] = test system: Staphylococcus aureus; assay: Antibiofilm activity against Staphylococcus aureus ATCC 25923 pre-formed mature biofilm assessed as reduction in biofilm biomass at 40 uM incubated for 24 hrs compound added post biofilm formation by crystal violet staining based assay relative to control; assay type: functional; conditions: ATCC 25923, 24 h
[12] = test system: Staphylococcus aureus; assay: Antibiofilm activity against Staphylococcus aureus ATCC 25923 pre-formed mature biofilm assessed as reduction in biofilm viability at 40 uM incubated for 24 hrs compound added post-biofilm formation by resazurin staining based assay relative to control; assay type: functional; conditions: ATCC 25923, 24 h
[13] = test system: Enterococcus hirae; assay: Antibacterial activity against Enterococcus hirae ATCC 1052 cultured in BHI medium assessed as reduction in bacterial growth incubated for 48 hrs by microbroth dilution method; assay type: functional; conditions: ATCC 1052, 48 h
[14] = test system: Escherichia coli; assay: Antibacterial activity against Escherichia coli ATCC 8739 assessed as bacterial cell swelling followed by non-divisional long cord formation and cell aggregates formation at 128 ug/ml incubated for 30 mins by laser confocal microscopy; assay type: functional, organism-based
[15] = molecular target: DNA gyrase (Escherichia coli, UniProt P0AES4+P0AES6); assay: Inhibition of Escherichia coli DNA gyrase super-coiling activity using relaxed pNO1 DNA as substrate incubated for 30 mins by fluorescence assay; assay type: protein-complex assay
[16] = test system: Pseudomonas aeruginosa; assay: Bactericidal activity against Pseudomonas aeruginosa ATCC 9027 cultured in MH medium assessed as reduction in bacterial survival incubated for 48 hrs by microbroth dilution method; assay type: functional; conditions: ATCC 9027, 48 h
[17] = test system: Escherichia coli; assay: Induction of inner membrane permeabilization in Escherichia coli ATCC 8739 assessed as increase in release of cytoplasmic beta galactosidase using ONPG as substrate at 128 ug/ml incubated for 90 mins compound added with bacterial cells after lag time of about 10 mins by spectrophotometry; assay type: organism-based
[18] = test system: Staphylococcus epidermidis; assay: Resistance index, ratio of MIC for methicillin resistant Staphylococcus epidermidis ATCC 13199 measured after 2 dilution steps to MIC for Staphylococcus epidermidis ATCC 13199 measured after 48 hrs incubation by microbroth dilution method; assay type: functional
[19] = test system: Enterococcus hirae; assay: Bactericidal activity against Enterococcus hirae ATCC 1052 cultured in BHI medium assessed as reduction in bacterial survival incubated for 48 hrs by microbroth dilution method; assay type: functional; conditions: ATCC 1052, 48 h
[20] = test system: Staphylococcus aureus; assay: Antibiofilm activity against Staphylococcus aureus ATCC 25923 assessed as biofilm biomass at <0.625 uM incubated for 24 hrs compound added prior to bacterial biofilm formation by crystal violet staining based assay; assay type: functional, organism-based
[21] = test system: Staphylococcus epidermidis; assay: Resistance index, ratio of MIC for methicillin resistant Staphylococcus epidermidis ATCC 13199 measured after 4 dilution steps to MIC for Staphylococcus epidermidis ATCC 13199 measured after 48 hrs incubation by microbroth dilution method; assay type: functional

O=C(O)C1=Cc2ccccc2N2C[N+]3(CCN(c4cc5c(cc4F)c(=O)c(C(=O)O)cn5C4CC4)CC3)N=C12.[Cl-]
Activity [1]: 39%
MIC [2]: 0.063 µg/mL
MIC [3]: 4 µg/mL
Activity [4]: Active
Activity [5]: Non-Toxic
Activity [6]: Active
Activity [7]: 10%
Drug uptake [8]: Dose-dependent effect
Drug uptake [9]: Not Active
MBC [10]: 4 µg/mL
inhibition at 40 µM [11]: 50%
inhibition at 40 µM [12]: 100%
MIC [13]: > 512 µg/mL
Activity [14]: Active
pIC50 [15]: 5.22
MBC [16]: 2 µg/mL
Activity [17]: Active

CCn1cc(C(=O)O)c(=O)c2cc(F)c(N3CC[N+]4(CC3)CN3C(=N4)C(C(=O)O)=Cc4ccccc43)nc21.[Cl-]
Activity [1]: 43%
MIC [2]: 0.25 µg/mL
MIC [3]: 8 µg/mL
Activity [5]: Non-Toxic
Activity [7]: 16%
Ratio [18]: 4
MBC [10]: 8 µg/mL
MBC [19]: 512 µg/mL
MIC [13]: 512 µg/mL
inhibition [20]: inactive
MBC [16]: 1 µg/mL
Ratio [21]: 16

CCn1cc(C(=O)O)c(=O)c2cc(F)c(N3CC[N+]4(CN5C(=N4)C(C(=O)O)=Cc4ccccc45)C(C)C3)c(F)c21.[Cl-] (stereo not given)
Activity [1]: 51%
MIC [2]: 0.125 µg/mL
MIC [3]: 2 µg/mL
Activity [5]: Non-Toxic
Activity [7]: 6%
MBC [10]: 2 µg/mL
MBC [19]: 512 µg/mL
MIC [13]: 512 µg/mL
inhibition [20]: inactive
pIC50 [15]: 5.61
MBC [16]: 1 µg/mL
